The results in this text go back to patent US5962415A, “Compositions comprising a peptide inhibitor of nuclear protein translocation and an immunosuppressant and methods of use thereof” (Bristol-Myers Squibb Co., priority 1998, dated 1999).

One test deals with HIVLAI in Jurkat cells. In words: Nuclear translocation of HIV genome in Jurkat cells infected with HIVLAI (gag and 2-LTR circle PCR). As to conditions: SV40MEM 0.1 and 1.0 μM; NF-κBMEM 10 μM; 24 hr, FIG. 8B. It is filed as cell-based, HIV-1. How it is done: HIV-1 M1 p24 levels were assayed using the procedures described in Smithgall et al (1995) AIDS Res. and Human Retrovirus 11:885. Proviral DNA content (gag) was measured using polymerase chain reaction analysis as described in Smithgall et al. (1995), supra.
2-LTR circles, a strictly nuclear form of HIV-1 DNA the expression of which indicates nuclear localization of the viral genome, was measured by as described in Bukrinsky et al (1991) Science 254:423.
Jurkat cells were incubated with the SV40MEM polypeptide for 3 hr with HIVLAI for 1-2 hr. The virus was washed out and the cultures supplemented with the appropriate inhibitor (SV40MEM, 0.1,μM and 1.0 μM; NF-κBMEM, 10 μM). After 24 hr, the cells were collected, lysed and evaluated for HIV-1 DNA by polymerase chain reaction analysis of gag sequences (see FIG. 8A) and 2-LTR circles (see FIG. 8B).

Test [1] deals with THP-1 human monocytic cells. In words: LPS-stimulated cytokine (TNF-α, IL-8) production in THP-1 cells. Format: cell-based. Conditions: 5 μM or 10 μM, 2 hr preincubation, 5 hr LPS stimulation, FIG. 2. Here is the method:
Amounts of TNF-α, IL-6, IL-8 and IL-10 were determined using the ELISA kits obtained from Genzyme following the manufacturer's instructions.
THP-1 control cells were harvested, washed and set up in RPMI 1640, 10% fetal calf serum, at a concentration of 2.56×10^6 cells/ml. Phosphate buffered saline ("PBS") or one of the two respective polypeptides SV40MEM or SV40 (a peptide having only the SV40 large T antigen NLS sequence) were added to the cells at a concentration of 10 μM or 20 μM. The cells were then plated into a 96-well plate with 0.1 ml/well. The plate was then incubated for 2 hr at 37° C. in a 5% CO2 atmosphere. Following the initial incubation, media or a titration of LPS was added to each of the wells in a volume of 0.1 ml. Thus, the final concentrations of polypeptides were 5 μM or 10 μM. Following 5 hr of LPS stimulation, supernatants were taken and TNF-α and IL-8 levels were determined by ELISA. In addition, cells treated with PBS or polypeptides, but not incubated with LPS, were removed at the time of supernatant removal to determine the viability of the cells following 7 hr of contact with the polypeptides.
This experiment was conducted to compare the inhibitory effect of the SV40MEM polypeptide and other inhibitory polypeptides on LPS induction of cytokine production. THP-1 control cells (ATCC 9/95 stock) were harvested, washed and set up in RPMI 1640, 10% fetal calf serum as described in Example 2. The cells were incubated for 2 hr with PBS or (1) the FGF signal sequence, (2) a polypeptide having the FGF signal sequence and the NLS of NF-κB p50 on the carboxy terminus of the signal sequence, (3) the SV40MEM polypeptide comprised of L-amino acids, or (4) the SV40MEM polypeptide comprised of D-amino acids at a final concentration of 5 μM. The cells were then plated into a 96-well plate with 0.1 ml/well. The plate was then incubated for 2 hr at 37° C. in a 5% CO2 atmosphere. Following the initial incubation, media or a titration of LPS was added to each of the wells in a volume of 0.01 ml/well. Following 5 hr of LPS stimulation, supernatants were taken and TNF-α levels were determined by ELISA.

With “PKKKRKVAAVALLPAVLLALLAPKKKRKVC [SV40MEM, FGF signal peptide hydrophobic region flanked by SV40 large T antigen NLS]”, the “translocation of the viral genome into the nucleus (2-LTR circles)” value in the test on HIVLAI in Jurkat cells is given as “inhibited translocation of the viral genome into the nucleus”. In addition, the TNF-α production result in test [1] is on record as “inhibited TNF-α production in a dose-dependent manner”.
